Holding throughout (experiment): NCI tumour cell line growth inhibition, 48 h
Assay [1] deals with BT-549.
Assay [2] deals with UO-31.
Assay [3] deals with HCT-116.
Assay [4] deals with MOLT-4.
In assay [5] the test system is SF-268.
Assay [6] has as its system DU-145.
Assay [7] has as its system SW-620.
The test system of assay [8] is KM12.
For assay [9], the system named is SR.
In assay [10] the test system is CCRF-CEM.
The test system of assay [11] is UACC-62.
Assay [12] has as its system T47D.
For assay [13], the system named is A498.
Assay [14] deals with U-251.
For assay [15], the system named is HL-60.
Assay [16] relates to Malme-3M.
Assay [17] has as its system NCI-H460.
The subject of assay [18] is SK-MEL-5.
The test system of assay [19] is NCI/ADR-RES.
The subject of assay [20] is MCF7.

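Following 48 hours of exposure in 96-well plates, responses at five concentrations were used to interpolate endpoints linearly. The concentration for 50% growth inhibition is given as GI50.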 Active and inactive are the calls of the source. No stated cut-off is given here; in the data, active = GI50 up to about 1.1 µM and inactive = higher. Some results are limits rather than exact numbers.

Consider `CCOC(=O)C1=C(C)N(C)C23OC4(C(=O)OC)CC2c2ccccc2C1N3C4=O` (stereo not drawn), for which the GI50 was > 100 µM (inactive) in assay [1]; 25.1 µM (inactive) in assay [2]; 49.8 µM (inactive) in assay [3]; 74.8 µM (inactive) in assay [4]; > 100 µM (inactive) in [5]; > 100 µM (inactive) in [6]. The GI50 in assay [7] is 41.9 µM (inactive); in [8], 84.5 µM (inactive); in [9] it was 16.5 µM (inactive); in assay [10] it was 79.6 µM (inactive); in [11] it was > 100 µM (inactive); in assay [12], > 100 µM (inactive). The GI50 in assay [13] was > 100 µM (inactive); in [14] it was > 100 µM (inactive); in [15] it was 24.6 µM (inactive); in assay [16] it was > 100 µM (inactive); in assay [17], 20 µM (inactive); in assay [18] it was 32.5 µM (inactive). The GI50 in assay [19] was 86.9 µM (inactive); in assay [20], 28.1 µM (inactive).

On to `COc1cccc2c1/c(=C/c1ccc(N(C)C)cc1)c1cc(-c3ccccc3)[n+](C)n12`, for which the GI50 is 0.0875 µM (active) in assay [1]; 0.295 µM (active) in assay [2]; 0.107 µM (active) in assay [3]; 0.0897 µM (active) in [4]; 0.109 µM (active) in [5]; 0.0986 µM (active) in assay [6]. Also, the GI50 is 0.0421 µM (active) in assay [7]; 0.107 µM (active) in assay [8]; 0.0385 µM (active) in assay [9]; 0.0571 µM (active) in assay [10]; 0.182 µM (active) in assay [11]; 0.0964 µM (active) in [12]. Further, the GI50 in assay [13] is 0.305 µM (active); in [14] it was < 0.0158 µM (active); in [15], 0.0155 µM (active); in assay [16], 0.221 µM (active); in assay [17], 0.106 µM (active); in assay [18], 0.155 µM (active). Further, the GI50 in [19] was 3.19 µM (inactive); in assay [20], 0.0957 µM (active).

With `N#C[BH2-][n+]1cn(C2CC(O)C(COP(=O)(O)OC3CC(n4cnc5c(N)ncnc54)OC3CO)O2)c2nc(N)[nH]c(=O)c21` (stereo not drawn), the GI50 in assay [1], in assay [2], in assay [3], in assay [5], in assay [6] and in assay [7] was > 100 µM (inactive) in each case. For the same compound, the GI50 in assay [8], in assay [9], in assay [10], in assay [11], in [12] and in [13] was > 100 µM (inactive) in each case. In addition, the GI50 in assay [14], in assay [15], in assay [16], in assay [17], in assay [18] and in assay [19] was > 100 µM (inactive) throughout. Further, the GI50 in assay [20] was > 100 µM (inactive).

Consider `O=C(Nc1ccccc1)n1[nH]c(=O)n(-c2ccccc2)c1=O`, for which the GI50 in assay [1], in assay [2], in assay [3], in [5], in [6] and in assay [7] was > 100 µM (inactive) each time. Further, the GI50 in [8], in assay [9], in assay [10], in [11], in [12] and in [13] was > 100 µM (inactive) in each case. In addition, the GI50 in assay [14], in assay [15], in assay [16], in assay [17], in assay [18] and in assay [19] was > 100 µM (inactive) in each case. In addition, in assay [20], the GI50 was > 100 µM (inactive).

The values above are taken from ChEMBL document CHEMBL1201862, “PubChem BioAssay data set” (2004).
